# In patent publication US8956622B2, “Peptidic antagonists of class III semaphorins/neuropilins complexes” (INSERM—Institut National de la Sante et de la Recherche …, priority 2005, dated 2015):
# Legend:
# [1] = tested on: VEGF165 signalling in C6 cells; assay: VEGF165-induced migration of C6 tumour cell aggregates in 3D matrix (plasma clot); format: cell-based; details: VEGF165 50 ng/ml, peptide 10^−8 M
# Protocol: NRP1 is a receptor of VEGF (NEUFELD et al., Adv. Exp. Med. Biol., vol. 515, p: 81-90, 2002). We therefore verified that pTM-NRP1 can antagonize VEGF signalling in C6 cells. To this end, C6 tumour cell aggregates prepared as previously described (see BAGNARD et al., 1998; and NASARRE et al., Neoplasia, vol. 7, p: 180-189, 2005) were grown in the 3D matrix (plasma clot) and treated with VEGF165.
# [2] = molecular target: T1, NRP1 receptor complex (Rattus norvegicus, UniProt Q9QWJ9); assay: Formation of NRP1 receptor complexes, sucrose density gradient sedimentation and western blot; format: cell-based; details: C6 cells expressing NRP1 and Plexin-A1, peptide 10^−9 M for 1 h
# T1 construct: C6 cells expressing NRP1 and Plexin-A1 were incubated or not with the pTM-NRP1 peptide; endogenous in cells; host or cells: rat C6 glioma cells
# Protocol: To further investigate the role of the transmembrane domain of the NRP1 receptor in the formation of the NRP1 receptor complex, the formation of NRP1 complexes has been determined on C6 cells expressing NRP1 and plexin-A1 in the presence or not of the transmembrane domain peptide of NRP1 (pTM-NRP1 peptide) and of the ligand Sema3A.
# C6 cells expressing NRP1 and Plexin-A1 were incubated or not with the pTM-NRP1 peptide (10^−9 M) for 1 h. The culture medium has been then replaced of HER cells stably transfected or not with a construction expressing Sema 3A. Confluent C6 have been harvested with 10 mM EDTA and centrifuged. The pellet has been washed in PBS and then diluted in lysis buffer (Tris-HCL/NaCl; 50/150; pH 8.0) with 0.1% SDS, 1 mM EDTA, 1% NP-40, 0.5% DOC, 2 mM vanadate and proteases inhibitors without SDS (PIERCE). After solubilization for 1 h at 4° C., protein amount is estimated by bicinchoninic acid method (BCA Protein Assay, PIERCE).
# Sucrose density gradient sedimentation experiments were based on a step gradient containing 25%, 17%, 10% and 3% sucrose. […]
# The membrane has been then incubated 2 hours with polyclonal anti-NRP1 at a 1:1000 dilution (ONCOGENE). […] Immunoreactivity has been then detected with an enhanced chemoluminescence western blot detection system (PIERCE) according to the manufacturer's instructions. […]
sequence,measurement,setting,value
ILITIIAMSALGVLLGAVCGVVL [pTM-NRP1],VEGF165-dependent C6 cells migration out of aggregates,[1],suppressed
same,oligomerization of NRP1 in the presence of Sema 3A,[2],inhibited
